Reference: patent US20080269325A1, “Methods to Relieve Pain” (Imperial Innovations Limited, priority 2004, published 2008)

Assays:
[1] = target: T1, FAAH (Rattus norvegicus, UniProt P97612); assay: Inhibition of FAAH catalysed [3H]-AEA hydrolysis; assay type: biochemical; details: for IC50: FAAH catalysed [3H]-AEA hydrolysis, read-out: pI50 (converted)
T1 sequence (P97612 1-579): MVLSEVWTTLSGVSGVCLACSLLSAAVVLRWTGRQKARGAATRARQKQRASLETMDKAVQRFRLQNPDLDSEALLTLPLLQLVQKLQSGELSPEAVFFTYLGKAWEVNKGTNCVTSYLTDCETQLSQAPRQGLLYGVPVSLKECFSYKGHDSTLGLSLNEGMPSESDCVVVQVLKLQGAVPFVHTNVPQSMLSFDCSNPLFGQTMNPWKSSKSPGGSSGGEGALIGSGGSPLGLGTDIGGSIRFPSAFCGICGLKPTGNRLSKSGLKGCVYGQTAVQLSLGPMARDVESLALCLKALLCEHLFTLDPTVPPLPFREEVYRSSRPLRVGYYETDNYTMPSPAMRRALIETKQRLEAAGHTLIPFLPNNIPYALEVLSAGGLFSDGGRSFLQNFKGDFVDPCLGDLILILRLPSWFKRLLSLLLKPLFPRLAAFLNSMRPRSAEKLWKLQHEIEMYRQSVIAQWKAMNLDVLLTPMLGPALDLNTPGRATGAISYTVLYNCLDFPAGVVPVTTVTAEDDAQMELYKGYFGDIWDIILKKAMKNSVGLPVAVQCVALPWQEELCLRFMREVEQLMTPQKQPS
Description: (§1) The FAAH inhibitory compound that we are investigating is an analogue of PEA called palmitoylallylamide (L-29). It was developed by Dr Didier Lambert and team at the Unité de Chimie pharmaceutique et de Radiopharmacie, Universite catholique de Louvain, Brussels, Belgium. The capacity of L-29 to inhibit FAAH was calculated by measuring the ability of the compound to inhibit FAAH catalysed [^3H]-AEA hydrolysis (maximum inhibition and pI50 calculated). […] Binding to CB1 and CB2 receptors was also calculated by measuring the displacement of radioactive [^3H]-CP55,940 from a cell line transfected with CB1 receptors and radioactive [^3H]-WIN55,212-2 from a cell line transfected with CB2 receptors.

[2] = target: T2, CB1 receptors (Homo sapiens, UniProt P21554); assay: Displacement of [3H]-CP55,940 from a cell line transfected with CB1 receptors; assay type: binding; details: concentration of 10 μM
T2 construct: expressed in transfected cells
Description: as §1

[3] = target: T3, CB2 receptors (Homo sapiens, UniProt P34972); assay: Displacement of [3H]-WIN55,212-2 from a cell line transfected with CB2 receptors; assay type: binding; details: concentration of 10 μM
T3 construct: expressed in transfected cells
Description: as §1

[4] = tested on: formalin-evoked pain in the rat; assay: Formalin test (CPS-WST(0,1,2) pain score); assay type: in vivo
Description: All experiments conformed with British Home Office regulations. Male Wistar rats weighing 230-290 g were obtained from B&K. Animals were housed in group cages and maintained on a 12-hour light-dark cycle with ad libitum access to food and water. Each animal was used in one experiment only.
L-29 was a gift from D Lambert (see FIG. 1 for chemical structure). SR1 and SR2 were a gift from Sanofi and capsazepine was purchased from Tocris. All drugs were dissolved in 40% dimethyl sulphoxide (DMSO) and saline.
Rats were randomised into seven groups. Investigator JB carried out the dosing of the animals to conform with Home Office regulations, while investigator HJ carried out all other duties including scoring the behavioural test, she was blinded to the drugs given. All animals were acclimatised to the testing environment for at least 30 min prior to the experiment beginning. Each animal received a first intraperitoneal (i.p.) injection of either vehicle or antagonist and five minutes later a second i.p. injection of either vehicle or L-29. […] 10 min later all the animals received a formalin injection.
50 μl of 2.5% formalin was injected subcutaneously into the dorsum of the right hind paw via a 27G needle. The paw was then marked with permanent ink. The animal was immediately replaced in the observation chamber, a clear plexiglass box measuring 23 cm×18 cm×14 cm, with a mirror positioned underneath at 45° to allow an unobstructed view of the paw. Observations began as the rats were placed in the box and continued for 60 min. Their behaviour was rated according to the Composite Pain Score, Weighted Scores Technique (CPS-WST (0,1,2)), a validated pain behaviour scoring system for the rat formalin test (Watson et al 1997). The amount of time spent in each of 2 behavioural categories was measured for each consecutive 5 min period within the hour scored. Category 1, the injected paw is elevated and not in contact with any surface and category 2, the injected paw is licked, bitten or shaken. A weighted score was then obtained for each 5 min period and for phase 1 (0-15 min) and phase 2 (15-60 min), by using the formula below:
CPS-WST=(1×time in category 1)+(2×time spent in category 2)
Data was analysed using the one-way ANOVA test followed by Dunnett's test using the SigmaStat 2.3 computer package.

[5] = tested on: rats rendered neuropathic by partial sciatic nerve ligation; assay: Thermal hyperalgesia (Hargreaves' device), partial sciatic nerve ligation model; assay type: in vivo, rat
Description: (§2) Male Wistar rats, weighing 250-350 g (mean 300 g) were housed at a constant temperature under a 14:10 light/dark cycle, with free access to food and water.
(§3) The animals were randomised into four experimental groups, with six animals in each group:
(§4) Group B. L-29 in a DMSO Vehicle in Three i.p. Doses: 0.1 mgkg^−1, 1 mgkg^−1, 10 mgkg^−1
(§5) In this study, six animals were allocated to each dose group and baseline limb withdrawal thresholds were recorded for each animal at t=0. This was immediately followed by the ip. administration of L-29 solution.
(§6) Limb withdrawal thresholds to all three modalities were recorded at t=0. Each animal then received i.p. injection of the antagonist in a 40% DMSO and saline solution, immediately followed by the administration of L-29 at a dose of 1 mgkg^−1 via the same route. Sensory testing resumed and limb withdrawal thresholds were recorded over the course of the experiment as described.
(§7) Following the original description for partial sciatic nerve ligation by Seltzer et al.^2, surgery was performed in equal number. Under inhalational anaesthesia using isoflurane and nitrous oxide, the left sciatic nerve was exposed at upper-thigh level and the dorsal third—half of the sciatic nerve tightly ligated with a 7-0 silk suture at a site just distal to the point at which the posterior biceps semitendinosus nerve branches off the sciatic nerve. Haemostasis was confirmed and the wound then closed with muscle and skin sutures and a small volume of 0.5% bupivicaine administered subcutaneously. A strict aseptic technique was maintained throughout. The animal was then recovered and returned to its housing environment and a post-operative check conducted the following day. See FIG. 12 for full description and protocol.
Behavioural tests included simple reflex withdrawal to mechanical, thermal and cold stimuli. […] Baseline sensory thresholds were measured pre-operatively on the day of surgery and on post-operative day eight. […] Sensory thresholds were recorded at time (t) 0, 20, 40, 60 and 80 minutes post drug administration.
Thermal hyperalgesia is assessed using a noxious infrared heat stimulus applied to the plantar surface of both hind paws as described by Hargreaves et al.^4 Paw withdrawal thresholds to a focused beam of radiant heat at a constant temperature of 46° C. and infrared intensity (of twenty for rats and thirty for mice) is measured. […] Sampling is repeated five times to each paw with three minutes between testing and a mean withdrawal threshold is calculated.
(§8) Statistical significance was determined for neuropathy by the paired t-test and for drug effects by the one-way ANOVA (Dunnett's test) (compared to post-operative values), both taking p<0.05 as statistically significant.

[6] = tested on: rats rendered neuropathic by partial sciatic nerve ligation; assay: Mechanical allodynia (electronic von Frey), partial sciatic nerve ligation model; assay type: in vivo, rat
Description: as §2, §3, §4, §5, §6, §7
Behavioural tests included simple reflex withdrawal to mechanical, thermal and cold stimuli. Before commencing experiments, animals were allowed to acclimatise to the testing environment for at least 15 minutes until exploratory behaviour had ceased. In order to minimise bias, the experiment to be conducted was randomised (according to a predetermined random number table—see table 2) on the day of testing and the drug doses were drawn up and given by a separate investigator to the one scoring the behavioural tests who was blinded to the drugs given. Baseline sensory thresholds were measured pre-operatively on the day of surgery and on post-operative day eight. […] Sensory thresholds were recorded at time (t) 0, 20, 40, 60 and 80 minutes post drug administration. […]
as §8

[7] = tested on: rats rendered neuropathic by partial sciatic nerve ligation; assay: Cold allodynia (acetone drop), partial sciatic nerve ligation model; assay type: in vivo, rat; details: for positive response to cold stimulus (declined from 100%): between 40-60 minutes post drug
[8] = tested on: WIN2 induced catalepsy; details: 1 mg/kg i.p.; cited from earlier work
[9] = antagonist 1 mgkg^−1 i.p. + L-29 1 mgkg^−1 i.p.

T2 sequence (P21554 whole entry): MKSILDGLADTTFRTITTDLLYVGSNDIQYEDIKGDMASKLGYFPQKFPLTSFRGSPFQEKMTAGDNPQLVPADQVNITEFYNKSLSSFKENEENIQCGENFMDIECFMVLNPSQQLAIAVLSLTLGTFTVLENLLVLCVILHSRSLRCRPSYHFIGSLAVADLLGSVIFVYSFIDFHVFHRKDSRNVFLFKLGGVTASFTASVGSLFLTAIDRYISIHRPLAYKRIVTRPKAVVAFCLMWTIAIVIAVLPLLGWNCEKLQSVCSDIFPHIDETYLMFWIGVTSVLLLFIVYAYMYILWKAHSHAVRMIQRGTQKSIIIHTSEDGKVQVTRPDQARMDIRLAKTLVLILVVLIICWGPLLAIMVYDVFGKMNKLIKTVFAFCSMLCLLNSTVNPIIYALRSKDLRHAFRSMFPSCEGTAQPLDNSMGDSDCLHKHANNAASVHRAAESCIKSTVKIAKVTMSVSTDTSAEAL
T3 sequence (P34972 whole entry): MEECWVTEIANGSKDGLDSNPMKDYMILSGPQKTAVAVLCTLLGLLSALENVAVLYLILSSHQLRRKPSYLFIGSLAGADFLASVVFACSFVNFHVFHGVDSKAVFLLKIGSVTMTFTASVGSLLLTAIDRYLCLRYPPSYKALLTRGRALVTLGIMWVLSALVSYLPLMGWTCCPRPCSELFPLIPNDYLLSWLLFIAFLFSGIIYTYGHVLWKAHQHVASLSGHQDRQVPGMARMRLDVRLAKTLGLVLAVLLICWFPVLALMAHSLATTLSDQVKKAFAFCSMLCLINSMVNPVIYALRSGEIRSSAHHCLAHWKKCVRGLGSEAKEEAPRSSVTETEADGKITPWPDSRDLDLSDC

For `C=CCNC(=O)CCCCCCCCCCCCCCC` [L-29, N-(2-propenyl)hexadecanamide], the “maximum inhibition of FAAH catalysed [3H]-AEA hydrolysis” value [1] was 67%, the IC50 [1] was 3.39 µM and the “displacement of [3H]-CP55,940 in the CB1 assay” value [2] was 13.3%. For the same molecule, the “displacement of [3H]-WIN55,212-2 in the CB2 assay” value [3] was 7.8%, the “pain behaviour v control” value ([4]; 0.1 mg/kg i.p.) was “not significantly different from control” and the “pain behaviour v control (P<0.05)” value ([4]; 1 mg/kg i.p.) was “significantly attenuated pain behaviour”. The “pain behaviour v control (P<0.05)” value ([4]; 10 mg/kg i.p.) was “significantly attenuated pain behaviour”, the “pain behaviour in both phases of the formalin test” value ([4]; 0.1, 1 and 10 mg/kg i.p., 10 min before 2.5% formalin s.c.) was “dose-dependently inhibited” and the “attenuation of thermal hyperalgesia” value ([5]; 0.1 mgkg^−1 i.p.) was “only at 40 minutes”. The “attenuation of thermal hyperalgesia” value ([5]; 1 mgkg^−1 i.p.) was “attenuated later between 40 and 60 minutes post drug injection”, the “attenuation of thermal hyperalgesia” value ([5]; 10 mgkg^−1 i.p., between 20 and 60 minutes post drug) was “Attenuation of thermal hyperalgesia was greatest” and the “reversal of mechanical allodynia” value ([6]; 0.1 mgkg^−1 i.p.) was “only at 80 minutes post i.p drug administration”. The “reversal of mechanical allodynia (mechanical sensory thresholds)” value ([6]; 1 mgkg^−1 i.p., at 20 minutes and 60 minutes post drug) was “significant increase in mechanical sensory thresholds”, the “reversal of mechanical allodynia” value ([6]; 10 mgkg^−1 i.p.) was “No effect on mechanical allodynia” and the “decline in positive response to cold stimulus” value ([7]; 0.1 mgkg^−1 i.p., between 20-40 minutes) was “decline by almost half”. For the same molecule, the “positive response to cold stimulus (declined from 100%)” value ([7]; 1 mgkg^−1 i.p.) was 50%, the “positive response to cold stimulus (declined from 100%)” value ([7]; 10 mgkg^−1 i.p.) was 50% and the “reversal of cold allodynia” value ([7]; all doses (0.1, 1, 10 mgkg^−1 i.p.)) was “did not yield a statistically significant reversal of cold allodynia”.
With `CCCCCCCCCCCCCCCC(=O)NCCO` [PEA, Palmitoylethanolamide, reference compound] the “maximum inhibition of FAAH catalysed [3H]-AEA hydrolysis” value [1] was 78%, the IC50 [1] was 5.01 µM and the “displacement of [3H]-CP55,940 in the CB1 assay” value [2] was 23.8%. For the same molecule, the “displacement of [3H]-WIN55,212-2 in the CB2 assay” value [3] was 13.9%.
For `Cc1c(C(=O)NN2CCCCC2)nn(-c2ccc(Cl)cc2Cl)c1-c1ccc(Cl)cc1` [SR1, reference compound], the “effect of receptor antagonist on antinociceptive effect of L-29” value ([4]; phase 2 (15-60 min), antagonist 1 mg/kg i.p. prior to 1 mg/kg L-29) was “reverses the antinociceptive effect of L-29”, the “effect of co-administered antagonist on anti-hyperalgesic effect of L-29 (thermal)” value [5, 9] was “appeared not to prevent the anti-hyperalgesic and anti-allodynic effects” and the “effect of co-administered antagonist on anti-allodynic effect of L-29 (mechanical)” value [6, 9] was “appeared not to prevent the anti-hyperalgesic and anti-allodynic effects”. For the same molecule, the “cold allodynia on co-administration of antagonist and L-29” value [7, 9] was “significant reduction in % positive response to cold stimulus” and the “time to significant antagonism of WIN2 induced catalepsy” value [8] was no more than 15 min.
In the case of `Oc1cc2c(cc1O)CN(C(=S)NCCc1ccc(Cl)cc1)CCC2` [capsazepine, reference compound], the “effect of receptor antagonist on antinociceptive effect of L-29” value ([4]; either phase, SR2 1 mg/kg or capsazepine 10 mg/kg i.p. prior to 1 mg/kg L-29) is reported as “do not significantly reverse the antinociceptive effect of L-29”.
